Where “and” joins values, the source holds several entries; their conditions need not be identical. Equal values may be shown once. Toxic doses and inconclusive results are not listed. How the source made its calls: active means survival T/C of 150% or more; inactive means T/C below 125% in these data.
System: CD2F1 mice, L1210 leukemia ip, survival T/C
Test: NCI In Vivo Anticancer Drug Screen. Data for tumor model L1210 Leukemia (intraperitoneal) in CD2F1 (CDF1) mice
Conditions: endpoint: mean survival time, higher = longer survival
How it was run: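 Antitumor effect is scored in animals hosting a serially transplanted tumor. Values compare compound-dosed animals against vehicle-only controls as a simple quotient.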

[1] = dose: 50.0 mg/kg/injection, schedule: Q01DX009 (ip), vehicle: saline with Tween-80
[2] = dose: 100.0 mg/kg/injection, schedule: Q01DX001 (ip), vehicle: saline with Tween-80
[3] = dose: 100.0 mg/kg/injection, schedule: Q01DX009 (ip), vehicle: saline with Tween-80
[4] = dose: 200.0 mg/kg/injection, schedule: Q01DX009 (ip), vehicle: saline with Tween-80
[5] = dose: 100.0 mg/kg/injection, schedule: Q01DX009 (ip), vehicle: Klucel (hydroxypropylcellulose) (HPC)
[6] = dose: 100.0 mg/kg/injection, schedule: Q04DX003 (ip), vehicle: saline with Tween-80
[7] = dose: 200.0 mg/kg/injection, schedule: Q01DX009 (ip), vehicle: Klucel (hydroxypropylcellulose) (HPC)
[8] = dose: 200.0 mg/kg/injection, schedule: Q04DX003 (ip), vehicle: saline with Tween-80
[9] = dose: 400.0 mg/kg/injection, schedule: Q01DX009 (ip), vehicle: Klucel (hydroxypropylcellulose) (HPC)
[10] = dose: 400.0 mg/kg/injection, schedule: Q04DX003 (ip), vehicle: saline with Tween-80
[11] = dose: 5.0 mg/kg/injection, schedule: Q01DX009 (ip), vehicle: saline with Tween-80
[12] = dose: 10.0 mg/kg/injection, schedule: Q01DX009 (ip), vehicle: saline with Tween-80
[13] = dose: 20.0 mg/kg/injection, schedule: Q01DX009 (ip), vehicle: saline with Tween-80
[14] = dose: 100.0 mg/kg/injection, schedule: Q01DX001 (ip), vehicle: saline
[15] = dose: 200.0 mg/kg/injection, schedule: Q01DX001 (ip), vehicle: saline
[16] = dose: 400.0 mg/kg/injection, schedule: Q01DX001 (ip), vehicle: saline
[17] = dose: 12.5 mg/kg/injection, schedule: Q01DX009 (ip), vehicle: Klucel (hydroxypropylcellulose) (HPC)
[18] = dose: 25.0 mg/kg/injection, schedule: Q01DX009 (ip), vehicle: Klucel (hydroxypropylcellulose) (HPC)
[19] = dose: 50.0 mg/kg/injection, schedule: Q01DX009 (ip), vehicle: Klucel (hydroxypropylcellulose) (HPC)

Measured: T/C

CC1(CO)C2CCC(CC2)C1CO (stereo unspecified)
inactive: [1] 102 % of control | [2] 95 % of control | [3] 96 % of control | dose: 200.0 mg/kg/injection, schedule: Q01DX001 (ip), vehicle: saline with Tween-80 94 % of control | [4] 96 % of control

CCCCOC(=O)C(N)=O
inactive: [5] 94 % of control | [6] 97 % of control | [7] 100 % of control | [8] 100 % of control | [9] 93 % of control | [10] 102 % of control

Nc1ccccc1SSc1ccccc1N
inactive: [6] 98 % of control | [8] 90 % of control

C1CC[N-]CC1.[Cl][Pt+2][Cl].[NH2-]
inactive: dose: 6.25 mg/kg/injection, schedule: Q04DX003 (ip), vehicle: distilled water + Tween-80 100 % of control | dose: 12.5 mg/kg/injection, schedule: Q04DX003 (ip), vehicle: distilled water + Tween-80 96 % of control | dose: 25.0 mg/kg/injection, schedule: Q04DX003 (ip), vehicle: distilled water + Tween-80 94 % of control | dose: 50.0 mg/kg/injection, schedule: Q04DX003 (ip), vehicle: distilled water + Tween-80 91 % of control

C[n+]1ccccc1/C=C/c1cccc([N+](=O)[O-])c1
inactive: [11] 100 % of control | [12] 105 % of control | [13] 107 % of control

CCN1CC2CCC(C(=O)O)(C2)C1=O (stereo unspecified)
inactive: [14] 98 % of control | [15] 106 % of control | [16] 102 % of control

CCCCCCCCCCCCCCCCOc1ccccc1CNc1cc(C(F)(F)F)ccc1Cl
inactive: dose: 100.0 mg/kg/injection, schedule: Q01DX009 (ip), vehicle: other 89 % of control | dose: 200.0 mg/kg/injection, schedule: Q01DX009 (ip), vehicle: other 103 % of control | dose: 400.0 mg/kg/injection, schedule: Q01DX009 (ip), vehicle: other 91 % of control

CCCCOC(=O)c1cccc([N+](=O)[O-])c1
inactive: [1] 93 % of control | [3] 104 % of control | [4] 105 % of control

CCOC(=O)CC(=O)c1c(C)cc(C)c(Br)c1C
inactive: [8] 97 % of control | [10] 92 % of control

CSCCCCCCSC
inactive: [6] 95 % of control | [8] 101 % of control

CCCCC(C)(C(=O)OCC)C(=O)OCC
inactive: [17] 98 % of control | [18] 98 % of control | [19] 108 % of control | [5] 98 % of control | [7] 98 % of control | [9] 106 % of control

Cc1ccc(C)c(NC(=O)c2cccc(Cl)c2)c1
inactive: [3] 89 % of control | [6] 94 % of control | [4] 94 % of control | [8] 94 % of control | dose: 400.0 mg/kg/injection, schedule: Q01DX009 (ip), vehicle: saline with Tween-80 102 % of control | [10] 94 % of control

Cc1cccc(Cl)c1NC(=O)C(C)C
inactive: dose: 100.0 mg/kg/injection, schedule: Q04DX003 (ip), vehicle: other 94 % of control | dose: 200.0 mg/kg/injection, schedule: Q04DX003 (ip), vehicle: other 91 % of control | dose: 400.0 mg/kg/injection, schedule: Q04DX003 (ip), vehicle: other 87 % of control

O=S(=O)(Cc1cc(-c2ccccc2)n[nH]1)c1ccccc1
inactive: [14] 96 % of control | [15] 95 % of control | [16] 98 % of control

COC(OC)C1C=CC=CC=C1
inactive: dose: 100.0 mg/kg/injection, schedule: Q04DX003 (ip), vehicle: saline sonified 92 % of control | dose: 200.0 mg/kg/injection, schedule: Q04DX003 (ip), vehicle: saline sonified 94 % of control | dose: 400.0 mg/kg/injection, schedule: Q04DX003 (ip), vehicle: saline sonified 90 % of control

O=C(O)C[Se]CC(=O)O
inactive: [14] 109 % of control | [15] 103 % of control

CCOC(=O)C[Si](C)(C)C
inactive: dose: 25.0 mg/kg/injection, schedule: Q01DX005 (ip), vehicle: water 101 % of control | dose: 50.0 mg/kg/injection, schedule: Q01DX005 (ip), vehicle: water 104 % of control | dose: 100.0 mg/kg/injection, schedule: Q01DX005 (ip), vehicle: water 101 % of control | dose: 200.0 mg/kg/injection, schedule: Q01DX005 (ip), vehicle: water 104 % of control | dose: 400.0 mg/kg/injection, schedule: Q01DX005 (ip), vehicle: water 101 % of control

BrC1CCCCCC12OCCO2 (stereo unspecified)
inactive: [6] 86 % of control | [8] 94 % of control | [10] 89 % of control

CCCCCCCCC(=O)N1CCOCC1
inactive: [3] 108 % of control | dose: 150.0 mg/kg/injection, schedule: Q04DX003 (ip), vehicle: saline 96 % of control

CC1(C)SCNC1C(=O)O (stereo unspecified)
inactive: [14] 96 % of control | [15] 100 % of control | [16] 94 % of control

COc1cc(O)c(Cc2ccccc2O)c(O)c1C(=O)CCc1ccccc1
inactive: dose: 1.25 mg/kg/injection, schedule: Q01DX009 (ip), vehicle: saline with Tween-80 105 % of control | dose: 2.5 mg/kg/injection, schedule: Q01DX009 (ip), vehicle: saline with Tween-80 100 % of control | [11] 97 % of control | [12] 105 % of control | [13] 100 % of control

CCc1c(CC(=O)O)c2cc(C)ccc2n1Cc1ccc(Cl)cc1
inactive: dose: 3.12 mg/kg/injection, schedule: Q01DX009 (ip), vehicle: Klucel (hydroxypropylcellulose) (HPC) 91 % of control | dose: 6.25 mg/kg/injection, schedule: Q01DX009 (ip), vehicle: Klucel (hydroxypropylcellulose) (HPC) 104 % of control | [17] 107 % of control | [18] 102 % of control | [19] 91 % of control | [5] 96 % of control

CNC(=O)c1ccccc1N=NN(C)C
inactive: dose: 18.75 mg/kg/injection, schedule: Q01DX009 (ip), vehicle: Klucel (hydroxypropylcellulose) (HPC) 98 % of control and 103 % of control and 106 % of control | dose: 37.5 mg/kg/injection, schedule: Q01DX009 (ip), vehicle: Klucel (hydroxypropylcellulose) (HPC) 122 % of control and 98 % of control and 105 % of control | dose: 75.0 mg/kg/injection, schedule: Q01DX009 (ip), vehicle: Klucel (hydroxypropylcellulose) (HPC) 122 % of control

CC1=C(C)C(=O)C(SC2CC(=O)OC2=O)=C(C)C1=O (stereo unspecified)
inactive: dose: 25.0 mg/kg/injection, schedule: Q01DX001 (ip), vehicle: saline with Tween-80 108 % of control | dose: 50.0 mg/kg/injection, schedule: Q01DX001 (ip), vehicle: saline with Tween-80 96 % of control | [2] 104 % of control

Cn1c(-c2ccccc2N=NN2CCCCC2)nc(=N)c2ccccc21
inactive: dose: 6.25 mg/kg/injection, schedule: Q01DX005 (ip), vehicle: water 95 % of control | dose: 12.5 mg/kg/injection, schedule: Q01DX005 (ip), vehicle: water 95 % of control

CS(=O)(=O)C(Cl)(Cl)S(C)(=O)=O
inactive: dose: 6.25 mg/kg/injection, schedule: Q04DX003 (ip), vehicle: saline with Tween-80 95 % of control | dose: 12.5 mg/kg/injection, schedule: Q04DX003 (ip), vehicle: saline with Tween-80 91 % of control | dose: 25.0 mg/kg/injection, schedule: Q04DX003 (ip), vehicle: saline with Tween-80 91 % of control

Reference: PubChem BioAssay AID256 (DTP/NCI, 2004)
